According to patent US20110166173A1, “3,5-DISUBSTUTUTED 1H-PYRROLO [2,3-B] PYRIDINES AS JNK INHIBITORS” (Eisai Co., Ltd., priority 2004, published 2011):

These compounds were tested against JNK3 (Homo sapiens, UniProt P53779) (assay: JNK3 SPA assay (phosphorylation of GST-c-Jun)). Details: Scintillation proximity assay, GST-c-Jun substrate, 3.33 μM ATP, 30 minutes at room temperature.
Type: biochemical
Procedure: JNK1, JNK2, JNK3—SPA Assay • 1. Compound is dissolved in DMSO to a convenient concentration and this is diluted in 10% DMSO to a five times concentrate of the desired starting concentration (frequently 1:100). • 2. 10 μl of 500 mM EDTA is added to alternative wells of the Opti-plate row, which will receive kinase reaction plus DMSO. This creates the negative control. • 3. For the JNK2 and JNK3 assay, compounds are prepared in six 2-fold dilutions with water and each concentration is tested in duplicate. For the JNK1 assay compounds are prepared in four 5-fold dilutions with water which are tested in triplicate. Controls are treated identically. • 4. 20 μl per well of each compound concentration is transferred to an Opti-plate, in duplicate. • 5. 30 μl (JNK2/3 SPA) or 50 μl (JNK1 SPA) of substrate solution (25 mM HEPES pH 7.5, 10 mM magnesium acetate with 3.33 μM ATP (JNK2/3) or 2 μM ATP (JNK1), approximately 7.5 kBq [γ-^33P] ATP, GST-c-Jun, in water) is added to each well. • 6. 50 μl (JNK2/3 SPA) or 30 μl (JNK1 SPA) of kinase solution (JNK in 25 mM HEPES pH 7.5, 10 mM Mg Acetate) is added to each well.
• 7. The plate is incubated for 30 minutes at room temperature. • 8. 100 μl of bead/stop solution is added to each well (5 mg/ml glutathione-PVT-SPA beads, 40 mM ATP in PBS). • 9. Plates are sealed and incubated for 30 minutes at room temperature, centrifuged for 10 minutes at 2500 g and counted. • 10. The IC50 values are calculated as the concentration of the compound being tested at which the phosphorylation of c-Jun is decreased to 50% of the control value.

Chain of JNK3 (P53779 whole entry): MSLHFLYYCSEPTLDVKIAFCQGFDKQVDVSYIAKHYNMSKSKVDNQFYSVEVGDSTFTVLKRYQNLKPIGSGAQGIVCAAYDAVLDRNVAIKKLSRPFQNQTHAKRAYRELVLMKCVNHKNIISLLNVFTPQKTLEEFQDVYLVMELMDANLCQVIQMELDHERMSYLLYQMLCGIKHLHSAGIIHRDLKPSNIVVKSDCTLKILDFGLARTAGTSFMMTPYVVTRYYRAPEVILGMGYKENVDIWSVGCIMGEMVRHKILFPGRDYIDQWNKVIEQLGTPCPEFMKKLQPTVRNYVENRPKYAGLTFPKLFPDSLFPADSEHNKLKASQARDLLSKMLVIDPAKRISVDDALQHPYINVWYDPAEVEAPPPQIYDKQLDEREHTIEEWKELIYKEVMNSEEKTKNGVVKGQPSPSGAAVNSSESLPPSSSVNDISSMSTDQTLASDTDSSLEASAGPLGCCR

Row | SMILES | IC50 [nM]
1 | O=C(c1cnc2[nH]cc(-c3ccoc3)c2c1)N1CCCC1 | < 500
2 | O=C(c1cnc2[nH]cc(-c3ccoc3)c2c1)N1CCc2ccccc2C1 | < 500
3 | O=C(NCCc1c[nH]c2ccccc12)c1cnc2[nH]cc(-c3ccoc3)c2c1 | < 500

More lines, now with the values ahead:

Row | IC50 [nM] | SMILES
4 | < 1000 | O=C(Nc1ccc2[nH]ccc2c1)c1cnc2[nH]cc(-c3ccoc3)c2c1
5 | < 500 | CN(C)c1ccc(C(=O)c2cnc3[nH]cc(-c4cnn(C)c4)c3c2)cc1
